According to patent US8350048B2, “Amide compounds as boosters of antivirals” (Janssen R&D Ireland, priority 2007, dated 2013):
Read-outs that look alike come from different tables or passages of the source.

Legend:
[1] = tested on: wild-type HIV-1IIIB strain; assay: Antiviral activity, MT4 LTR-EGFP cellular assay; assay type: cell-based; design: key to Antiviral activity IIIB (pEC50): pEC50 = -log10(EC50); conditions: wild-type HIV-1 IIIB, MT4 LTR-EGFP cells, three days after infection
MT4 CMV-EGFP cells = assay: Toxicity, mock-infected MT4 CMV-EGFP cells; assay type: cell-based, human
[2] = Metabolic stability of test compounds (HLM15'); assay type: in vitro ADME, human
CYP2C9 = CYP2C9 (Homo sapiens, UniProt P11712); assay: in vitro
Chain of CYP2C9 (P11712 whole entry): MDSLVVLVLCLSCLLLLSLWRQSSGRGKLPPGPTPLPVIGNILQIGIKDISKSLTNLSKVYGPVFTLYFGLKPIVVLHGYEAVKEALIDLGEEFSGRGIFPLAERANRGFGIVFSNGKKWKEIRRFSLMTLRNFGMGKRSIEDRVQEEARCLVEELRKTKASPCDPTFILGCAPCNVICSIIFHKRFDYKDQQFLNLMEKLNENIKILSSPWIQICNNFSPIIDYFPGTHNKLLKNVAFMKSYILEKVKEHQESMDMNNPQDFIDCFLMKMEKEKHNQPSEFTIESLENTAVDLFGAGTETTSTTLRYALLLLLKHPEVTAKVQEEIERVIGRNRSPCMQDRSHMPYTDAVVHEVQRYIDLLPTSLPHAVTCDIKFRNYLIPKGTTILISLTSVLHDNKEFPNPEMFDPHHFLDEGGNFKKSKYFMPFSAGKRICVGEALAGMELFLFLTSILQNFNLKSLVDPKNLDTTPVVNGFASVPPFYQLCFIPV
Excerpt: (§1) Assay 4: CYP450 Inhibition

CYP1A2 = target: T1, CYP1A2 (Homo sapiens, UniProt P05177); assay: CYP450 inhibition CDNA-CYP1A2-CEC; conditions: 10 μM test compound, substrate CEC 5 μM, 15 min
T1 sequence (P05177 1-516): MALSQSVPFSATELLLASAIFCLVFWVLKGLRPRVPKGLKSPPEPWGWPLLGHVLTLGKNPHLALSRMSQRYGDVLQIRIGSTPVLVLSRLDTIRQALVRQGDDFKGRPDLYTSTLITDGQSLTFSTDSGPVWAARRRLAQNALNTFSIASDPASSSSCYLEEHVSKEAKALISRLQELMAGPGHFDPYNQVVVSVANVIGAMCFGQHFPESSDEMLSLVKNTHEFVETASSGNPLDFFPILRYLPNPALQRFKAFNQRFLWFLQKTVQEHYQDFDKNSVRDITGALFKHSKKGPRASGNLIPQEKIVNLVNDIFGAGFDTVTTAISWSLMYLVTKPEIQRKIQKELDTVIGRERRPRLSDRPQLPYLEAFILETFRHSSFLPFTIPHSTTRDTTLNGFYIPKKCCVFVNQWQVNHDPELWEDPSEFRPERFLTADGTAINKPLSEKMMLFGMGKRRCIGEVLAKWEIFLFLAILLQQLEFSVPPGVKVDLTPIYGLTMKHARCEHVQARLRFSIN

CYP2D6 = CYP2D6 (Homo sapiens, UniProt P10635); assay: CYP450 inhibition CDNA-CYP2D6-AMMC; conditions: 10 μM test compound, substrate AMMC 3 μM, 45 min
Chain of CYP2D6 (P10635 whole entry): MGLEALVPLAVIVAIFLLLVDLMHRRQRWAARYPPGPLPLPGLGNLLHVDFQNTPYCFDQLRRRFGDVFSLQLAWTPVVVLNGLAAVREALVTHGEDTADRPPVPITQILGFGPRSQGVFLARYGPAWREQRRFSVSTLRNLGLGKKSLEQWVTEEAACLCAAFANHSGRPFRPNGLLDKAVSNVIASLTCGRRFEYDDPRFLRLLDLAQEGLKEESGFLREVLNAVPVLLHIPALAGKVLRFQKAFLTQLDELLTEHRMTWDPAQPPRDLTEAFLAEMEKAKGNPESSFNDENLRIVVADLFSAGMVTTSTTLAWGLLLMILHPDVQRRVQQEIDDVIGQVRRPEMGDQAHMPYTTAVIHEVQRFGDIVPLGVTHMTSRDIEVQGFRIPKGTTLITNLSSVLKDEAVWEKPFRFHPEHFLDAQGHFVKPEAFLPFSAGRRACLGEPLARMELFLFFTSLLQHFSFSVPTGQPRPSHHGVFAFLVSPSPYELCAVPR

CYP2C19 = CYP2C19 (Homo sapiens, UniProt P33261); assay: CYP450 inhibition CDNA-CYP2C19-CEC; conditions: 10 μM test compound, substrate CEC 25 μM, 30 min
Chain of CYP2C19 (P33261 whole entry): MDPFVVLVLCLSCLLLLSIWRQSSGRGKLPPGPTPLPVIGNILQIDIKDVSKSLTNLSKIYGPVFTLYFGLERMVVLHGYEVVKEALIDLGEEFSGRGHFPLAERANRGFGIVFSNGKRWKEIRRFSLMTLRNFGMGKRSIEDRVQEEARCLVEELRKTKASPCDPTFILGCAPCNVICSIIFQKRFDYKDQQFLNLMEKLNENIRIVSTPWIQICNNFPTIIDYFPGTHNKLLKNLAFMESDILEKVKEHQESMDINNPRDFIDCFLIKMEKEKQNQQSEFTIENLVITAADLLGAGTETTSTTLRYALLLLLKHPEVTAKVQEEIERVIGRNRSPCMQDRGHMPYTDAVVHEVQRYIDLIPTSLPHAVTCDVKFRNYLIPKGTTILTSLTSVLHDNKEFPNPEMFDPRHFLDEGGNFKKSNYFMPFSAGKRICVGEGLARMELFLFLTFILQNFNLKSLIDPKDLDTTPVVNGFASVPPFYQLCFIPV

[3] = In vivo boosting capacity: pharmacokinetics of darunavir in Beagle dogs; conditions: fed male Beagle dogs, booster 5 mg/kg oral 15 min before darunavir 5 mg/kg oral, average of 3 dogs
Description: Oral dosing was done by gavage. At all times, the dogs were given free and continuous access to water. Blood samples were collected from the jugular vein at 0 (=predose), 0.5, 1, 2, 4, 7, and 24 h after dose administration. The samples were centrifuged at 1900×g for 10 min at 5° C. to allow plasma separation. Separated plasma was stored in the freezer within two hours after blood sampling. At all times, blood and plasma samples were placed on melting ice and protected from light. […] Values listed are the average of 3 dogs.

CYP3A4 [4] = target: T2, CYP3A4 (Homo sapiens, UniProt P08684); assay: CYP450 inhibition CDNA-CYP3A4-BFC; conditions: 10 μM test compound, substrate BFC 150 μM, 30 min
T2 sequence (P08684 whole entry): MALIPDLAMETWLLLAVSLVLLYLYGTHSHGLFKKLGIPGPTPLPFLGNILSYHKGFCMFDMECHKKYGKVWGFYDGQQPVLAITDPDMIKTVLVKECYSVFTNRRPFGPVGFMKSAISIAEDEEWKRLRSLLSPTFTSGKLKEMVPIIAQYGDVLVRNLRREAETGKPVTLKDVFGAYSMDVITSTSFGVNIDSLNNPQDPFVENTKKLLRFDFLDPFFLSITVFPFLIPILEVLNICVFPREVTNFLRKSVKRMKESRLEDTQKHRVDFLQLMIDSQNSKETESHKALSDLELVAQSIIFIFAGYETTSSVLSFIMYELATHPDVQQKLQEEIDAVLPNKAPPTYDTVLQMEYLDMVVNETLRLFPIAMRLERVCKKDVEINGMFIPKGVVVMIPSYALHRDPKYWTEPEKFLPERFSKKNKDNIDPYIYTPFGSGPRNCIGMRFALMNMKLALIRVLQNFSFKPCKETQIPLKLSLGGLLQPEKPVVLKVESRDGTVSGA
Excerpt: as §1

CYP3A4 [5] = target: T2, CYP3A4; assay: CYP450 inhibition CDNA-CYP3A4-BQ; conditions: 10 μM test compound, substrate BQ 60 μM, 30 min
Excerpt: as §1

CYP3A4 [6] = target: T2, CYP3A4; assay: in vitro; conditions: 10 μM test compound, substrate DBF 1 μM, 10 min
Excerpt: as §1

[7] = mock-infected MT4 CMV-EGFP cells
[8] = human liver microsomes 1 mg/ml, 5 μM test compound, 15 min

| C7h of darunavir [3] [ng/mL] | SMILES | Antiviral activity IIIB (pEC50) [1] | Toxicity MT4 (pCC50) (MT4 CMV-EGFP cells; [7]) | Metabolic stability (HLM, % recovery after 15') [2, 8] [%] | Cyp450 inhibition: CDNA-CYP2C9-MFC (% inhibition) (CYP2C9) [%] | Cyp450 inhibition: CDNA-CYP1A2-CEC (% inhibition) (CYP1A2) [%] | Cyp450 inhibition: CDNA-CYP2D6-AMMC (% inhibition) (CYP2D6) [%] | Cyp450 inhibition: CDNA-CYP2C19-CEC (% inhibition) (CYP2C19) [%] | Toxicity MT4 (pCC50) (MT4 CMV-EGFP cells) | Cyp450 inhibition: CDNA-CYP3A4-BFC (% inhibition) (CYP3A4 [4]) [%] | Cyp450 inhibition: CDNA-CYP3A4-BQ (% inhibition) (CYP3A4 [5]) [%] | Cyp450 inhibition: CDNA-CYP3A4-DBF (% inhibition) (CYP3A4 [6]) [%] | Metabolic stability (HLM, % recovery after 15') [2] [%] |
| --- | --- | --- | --- | --- | --- | --- | --- | --- | --- | --- | --- | --- | --- |
| – | CC(C)CN(C[C@@H](O)[C@H](Cc1ccccc1)NC(=O)OCc1cncs1)C(=O)c1ccc2nc(N(C)C)oc2c1 [Compound C4] | =4.33 | =4.32 | 67 | 94 | 7 | 26 | 82 | – | – | – | – | – |
| 134 | CC(C)CN(C[C@@H](O)[C@H](Cc1ccccc1)NC(=O)OCc1cncs1)C(=O)c1ccc2ncsc2c1 [Compound C7] | =4.02 | – | 65 | 99 | – | – | – | =4.00 | – | – | – | – |
| – | CC(C)CN(C[C@@H](O)[C@H](Cc1ccccc1)NC(=O)OCc1cncs1)C(=O)c1ccc2nc(NC3CCN(C)CC3)oc2c1 [Compound C25] | <4.00 | <4.00 | 8 | 12 | 0 | 67 | 7 | – | 77 | 71 | 76 | – |
| – | CCNc1nc2ccc(C(=O)N(CC(C)C)C[C@@H](O)[C@H](Cc3ccccc3)NC(=O)OCc3cncs3)cc2o1 [Compound C27] | =4.07 | <4.00 | 52 | 94 | 10 | 70 | 79 | – | 94 | 80 | 94 | – |
| – | CCNc1nc2ccc(C(=O)N(C[C@@H](O)[C@H](Cc3ccccc3)NC(=O)OCc3cncs3)CC(C)(C)O)cc2o1 [Compound C44] | <4.00 | <4.00 | 70 | 95 | 0 | 38 | 62 | – | – | – | – | – |
| – | CC(C)CN(C[C@@H](O)[C@H](Cc1ccccc1)NC(=O)OCc1cncs1)C(=O)c1ccc2nc(-c3ccncc3)oc2c1 [Compound C48] | <4.00 | <4.00 | – | 99 | 18 | 74 | 94 | – | 97 | 85 | 98 | 91 |
